In ChEMBL document CHEMBL4507257, “Data for DCP probe ABT-100” (2021):

Assays:
[1] = molecular target: Cyclin-dependent kinase 15 (Homo sapiens) (UniProt Q96Q40); details: Compound concentration 1000.0 nM
Histamine H1 receptor = Histamine H1 receptor (Homo sapiens, UniProt P35367); details: Compound concentration 10.0 uM
[2] = tested on: Tyrosine-protein kinase ABL1 (Homo sapiens), P00519 [T315I]; details: Compound concentration 1000.0 nM
[3] = molecular target: Serine/threonine-protein kinase PAK 2 (Homo sapiens) (UniProt Q13177); details: Compound concentration 1000.0 nM
[4] = molecular target: Serine/threonine-protein kinase Sgk2 (Homo sapiens) (UniProt Q9HBY8); details: Compound concentration 1000.0 nM
[5] = molecular target: Mitogen-activated protein kinase kinase kinase kinase 5 (Homo sapiens) (UniProt Q9Y4K4); details: Compound concentration 1000.0 nM
[6] = molecular target: Mast/stem cell growth factor receptor Kit (Homo sapiens) (UniProt P10721); details: Compound concentration 1000.0 nM
[7] = molecular target: Cyclin-dependent kinase-like 1 (Homo sapiens) (UniProt Q00532); details: Compound concentration 1000.0 nM
[8] = molecular target: Ribosomal protein S6 kinase alpha-5 (Homo sapiens) (UniProt O75582); details: Compound concentration 1000.0 nM
[9] = molecular target: MAP/microtubule affinity-regulating kinase 4 (Homo sapiens) (UniProt Q96L34); details: Compound concentration 1000.0 nM
[10] = molecular target: Serine/threonine-protein kinase haspin (Homo sapiens) (UniProt Q8TF76); details: Compound concentration 1000.0 nM
[11] = molecular target: Serine/threonine-protein kinase TAO2 (Homo sapiens) (UniProt Q9UL54); details: Compound concentration 1000.0 nM
[12] = molecular target: T1, D(4) dopamine receptor (Homo sapiens) (UniProt P21917); details: Compound concentration 10.0 uM
T1 sequence (whole entry): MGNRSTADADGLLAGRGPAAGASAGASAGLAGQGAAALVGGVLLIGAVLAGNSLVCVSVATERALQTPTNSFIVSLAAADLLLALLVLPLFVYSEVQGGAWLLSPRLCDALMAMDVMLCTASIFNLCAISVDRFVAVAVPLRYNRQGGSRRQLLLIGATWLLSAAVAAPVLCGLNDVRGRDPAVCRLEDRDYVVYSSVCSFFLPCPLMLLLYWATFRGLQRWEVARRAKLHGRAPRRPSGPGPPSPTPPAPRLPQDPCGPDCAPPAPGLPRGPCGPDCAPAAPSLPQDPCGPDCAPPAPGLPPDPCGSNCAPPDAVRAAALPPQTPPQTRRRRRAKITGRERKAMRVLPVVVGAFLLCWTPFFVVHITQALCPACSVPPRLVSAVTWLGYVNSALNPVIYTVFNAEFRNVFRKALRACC

[13] = molecular target: Serine/threonine-protein kinase WNK1 (Homo sapiens) (UniProt Q9H4A3); details: Compound concentration 1000.0 nM
[14] = molecular target: Cyclin-dependent kinase 18 (Homo sapiens) (UniProt Q07002); details: Compound concentration 1000.0 nM
[15] = molecular target: Cytoplasmic tyrosine-protein kinase BMX (Homo sapiens) (UniProt P51813); details: Compound concentration 1000.0 nM
[16] = molecular target: Ephrin type-A receptor 2 (Homo sapiens) (UniProt P29317); details: Compound concentration 1000.0 nM
[17] = molecular target: Serine/threonine-protein kinase MARK2 (Homo sapiens) (UniProt Q7KZI7); details: Compound concentration 1000.0 nM
[18] = molecular target: Tyrosine-protein kinase BTK (Homo sapiens) (UniProt Q06187); details: Compound concentration 1000.0 nM
[19] = tested on: Fibroblast growth factor receptor 3 (Homo sapiens), P22607 [G697C]; details: Compound concentration 1000.0 nM
[20] = molecular target: Ephrin type-A receptor 1 (Homo sapiens) (UniProt P21709); details: Compound concentration 1000.0 nM
[21] = molecular target: Phosphatidylinositol 4-kinase beta (Homo sapiens) (UniProt Q9UBF8); details: Compound concentration 1000.0 nM
[22] = molecular target: Serine/threonine-protein kinase D3 (Homo sapiens) (UniProt O94806); details: Compound concentration 1000.0 nM
[23] = molecular target: Myosin light chain kinase (Homo sapiens) (UniProt Q32MK0); details: Compound concentration 1000.0 nM
[24] = molecular target: Tyrosine-protein kinase Lyn (Homo sapiens) (UniProt P07948); details: Compound concentration 1000.0 nM
[25] = molecular target: Muscle, skeletal receptor tyrosine-protein kinase (Homo sapiens) (UniProt O15146); details: Compound concentration 1000.0 nM
[26] = molecular target: Leucine-rich repeat serine/threonine-protein kinase 2 (Homo sapiens) (UniProt Q5S007); details: Compound concentration 1000.0 nM
[27] = molecular target: Casein kinase I isoform gamma-2 (Homo sapiens) (UniProt P78368); details: Compound concentration 1000.0 nM
[28] = molecular target: Tyrosine-protein kinase receptor Tie-1 (Homo sapiens) (UniProt P35590); details: Compound concentration 1000.0 nM
[29] = molecular target: Bone morphogenetic protein receptor type-2 (Homo sapiens) (UniProt Q13873); details: Compound concentration 1000.0 nM
[30] = molecular target: Serine/threonine-protein kinase PLK2 (Homo sapiens) (UniProt Q9NYY3); details: Compound concentration 1000.0 nM
[31] = tested on: Tyrosine-protein kinase ABL1 (Homo sapiens), P00519 [E255K]; details: Compound concentration 1000.0 nM
[32] = molecular target: Protein-tyrosine kinase 2-beta (Homo sapiens) (UniProt Q14289); details: Compound concentration 1000.0 nM
[33] = molecular target: Tyrosine-protein kinase ITK/TSK (Homo sapiens) (UniProt Q08881); details: Compound concentration 1000.0 nM
[34] = molecular target: Casein kinase I isoform delta (Homo sapiens) (UniProt P48730); details: Compound concentration 1000.0 nM
[35] = molecular target: RAC-beta serine/threonine-protein kinase (Homo sapiens) (UniProt P31751); details: Compound concentration 1000.0 nM
[36] = molecular target: Dual specificity tyrosine-phosphorylation-regulated kinase 2 (Homo sapiens) (UniProt Q92630); details: Compound concentration 1000.0 nM
[37] = molecular target: AP2-associated protein kinase 1 (Homo sapiens) (UniProt Q2M2I8); details: Compound concentration 1000.0 nM
[38] = molecular target: 5-hydroxytryptamine receptor 6 (Homo sapiens) (UniProt P50406); details: Compound concentration 10.0 uM
[39] = tested on: Phosphatidylinositol 4,5-bisphosphate 3-kinase catalytic subunit alpha isoform (Homo sapiens), P42336 [E545A]; details: Compound concentration 1000.0 nM

Sequence of Bone morphogenetic protein receptor type-2 (Homo sapiens) (Q13873 whole entry): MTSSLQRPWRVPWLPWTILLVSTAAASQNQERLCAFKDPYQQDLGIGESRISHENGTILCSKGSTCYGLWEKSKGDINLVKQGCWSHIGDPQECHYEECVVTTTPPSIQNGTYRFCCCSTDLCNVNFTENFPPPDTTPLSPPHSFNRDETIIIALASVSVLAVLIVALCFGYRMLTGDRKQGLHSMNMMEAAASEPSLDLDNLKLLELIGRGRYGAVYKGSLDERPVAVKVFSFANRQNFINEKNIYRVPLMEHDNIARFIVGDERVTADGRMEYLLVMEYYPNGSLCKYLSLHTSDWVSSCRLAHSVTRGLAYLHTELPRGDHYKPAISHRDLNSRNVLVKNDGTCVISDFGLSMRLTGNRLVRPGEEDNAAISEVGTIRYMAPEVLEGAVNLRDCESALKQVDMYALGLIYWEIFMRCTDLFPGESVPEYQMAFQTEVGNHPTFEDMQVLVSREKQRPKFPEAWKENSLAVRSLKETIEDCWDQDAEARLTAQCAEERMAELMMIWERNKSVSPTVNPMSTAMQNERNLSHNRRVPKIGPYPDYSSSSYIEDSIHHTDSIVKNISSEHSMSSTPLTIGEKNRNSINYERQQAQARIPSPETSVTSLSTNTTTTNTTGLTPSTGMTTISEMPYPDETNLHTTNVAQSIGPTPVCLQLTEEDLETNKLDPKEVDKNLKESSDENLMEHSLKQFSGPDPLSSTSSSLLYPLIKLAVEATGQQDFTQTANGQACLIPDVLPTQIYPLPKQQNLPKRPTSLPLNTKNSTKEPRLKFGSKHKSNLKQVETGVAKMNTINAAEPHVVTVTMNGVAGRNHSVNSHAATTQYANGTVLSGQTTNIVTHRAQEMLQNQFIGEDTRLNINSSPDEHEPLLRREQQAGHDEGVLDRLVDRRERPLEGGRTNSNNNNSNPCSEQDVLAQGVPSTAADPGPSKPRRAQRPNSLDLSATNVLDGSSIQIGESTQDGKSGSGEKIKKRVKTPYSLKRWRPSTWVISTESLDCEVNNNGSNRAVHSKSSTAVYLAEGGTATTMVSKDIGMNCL
Sequence of Cyclin-dependent kinase-like 1 (Homo sapiens) (Q00532 whole entry): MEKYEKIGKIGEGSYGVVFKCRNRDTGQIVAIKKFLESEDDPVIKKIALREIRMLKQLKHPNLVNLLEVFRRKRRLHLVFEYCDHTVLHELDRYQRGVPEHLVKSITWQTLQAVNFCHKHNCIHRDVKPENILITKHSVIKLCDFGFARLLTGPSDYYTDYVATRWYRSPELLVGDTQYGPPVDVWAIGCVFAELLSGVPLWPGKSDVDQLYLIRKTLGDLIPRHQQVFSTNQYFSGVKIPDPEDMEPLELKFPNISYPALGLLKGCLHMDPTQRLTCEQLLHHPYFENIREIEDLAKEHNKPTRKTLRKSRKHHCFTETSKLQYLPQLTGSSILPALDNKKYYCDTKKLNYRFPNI
Sequence of Serine/threonine-protein kinase Sgk2 (Homo sapiens) (Q9HBY8 whole entry): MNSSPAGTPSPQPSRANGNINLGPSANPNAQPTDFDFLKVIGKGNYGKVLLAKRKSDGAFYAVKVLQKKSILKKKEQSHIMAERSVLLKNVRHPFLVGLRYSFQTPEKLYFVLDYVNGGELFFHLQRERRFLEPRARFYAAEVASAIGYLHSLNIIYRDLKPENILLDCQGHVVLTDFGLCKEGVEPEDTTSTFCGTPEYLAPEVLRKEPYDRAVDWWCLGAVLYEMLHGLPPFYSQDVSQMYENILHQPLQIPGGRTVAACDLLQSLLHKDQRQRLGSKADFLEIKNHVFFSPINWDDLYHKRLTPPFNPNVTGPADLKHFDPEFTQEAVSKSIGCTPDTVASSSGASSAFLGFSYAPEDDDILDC
Sequence of Serine/threonine-protein kinase PLK2 (Homo sapiens) (Q9NYY3 whole entry, looked up): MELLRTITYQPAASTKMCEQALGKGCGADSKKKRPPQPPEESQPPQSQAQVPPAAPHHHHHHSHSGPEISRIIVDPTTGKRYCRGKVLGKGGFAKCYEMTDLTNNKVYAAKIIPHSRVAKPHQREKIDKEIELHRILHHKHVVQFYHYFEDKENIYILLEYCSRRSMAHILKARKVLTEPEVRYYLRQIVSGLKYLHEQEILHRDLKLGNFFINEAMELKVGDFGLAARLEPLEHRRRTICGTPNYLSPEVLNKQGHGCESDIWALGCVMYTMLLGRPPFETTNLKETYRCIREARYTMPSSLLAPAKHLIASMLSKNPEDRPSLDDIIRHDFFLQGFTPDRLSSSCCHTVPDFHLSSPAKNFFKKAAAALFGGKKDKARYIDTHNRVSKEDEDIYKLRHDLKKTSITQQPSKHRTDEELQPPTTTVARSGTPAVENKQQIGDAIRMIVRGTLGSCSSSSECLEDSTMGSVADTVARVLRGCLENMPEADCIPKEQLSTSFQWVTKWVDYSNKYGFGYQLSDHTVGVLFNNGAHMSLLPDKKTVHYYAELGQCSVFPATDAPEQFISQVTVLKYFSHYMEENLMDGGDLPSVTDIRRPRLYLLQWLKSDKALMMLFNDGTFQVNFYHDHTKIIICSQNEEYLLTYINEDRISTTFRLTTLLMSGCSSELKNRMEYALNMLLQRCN
Sequence of Leucine-rich repeat serine/threonine-protein kinase 2 (Homo sapiens) (Q5S007 whole entry, canonical isoform): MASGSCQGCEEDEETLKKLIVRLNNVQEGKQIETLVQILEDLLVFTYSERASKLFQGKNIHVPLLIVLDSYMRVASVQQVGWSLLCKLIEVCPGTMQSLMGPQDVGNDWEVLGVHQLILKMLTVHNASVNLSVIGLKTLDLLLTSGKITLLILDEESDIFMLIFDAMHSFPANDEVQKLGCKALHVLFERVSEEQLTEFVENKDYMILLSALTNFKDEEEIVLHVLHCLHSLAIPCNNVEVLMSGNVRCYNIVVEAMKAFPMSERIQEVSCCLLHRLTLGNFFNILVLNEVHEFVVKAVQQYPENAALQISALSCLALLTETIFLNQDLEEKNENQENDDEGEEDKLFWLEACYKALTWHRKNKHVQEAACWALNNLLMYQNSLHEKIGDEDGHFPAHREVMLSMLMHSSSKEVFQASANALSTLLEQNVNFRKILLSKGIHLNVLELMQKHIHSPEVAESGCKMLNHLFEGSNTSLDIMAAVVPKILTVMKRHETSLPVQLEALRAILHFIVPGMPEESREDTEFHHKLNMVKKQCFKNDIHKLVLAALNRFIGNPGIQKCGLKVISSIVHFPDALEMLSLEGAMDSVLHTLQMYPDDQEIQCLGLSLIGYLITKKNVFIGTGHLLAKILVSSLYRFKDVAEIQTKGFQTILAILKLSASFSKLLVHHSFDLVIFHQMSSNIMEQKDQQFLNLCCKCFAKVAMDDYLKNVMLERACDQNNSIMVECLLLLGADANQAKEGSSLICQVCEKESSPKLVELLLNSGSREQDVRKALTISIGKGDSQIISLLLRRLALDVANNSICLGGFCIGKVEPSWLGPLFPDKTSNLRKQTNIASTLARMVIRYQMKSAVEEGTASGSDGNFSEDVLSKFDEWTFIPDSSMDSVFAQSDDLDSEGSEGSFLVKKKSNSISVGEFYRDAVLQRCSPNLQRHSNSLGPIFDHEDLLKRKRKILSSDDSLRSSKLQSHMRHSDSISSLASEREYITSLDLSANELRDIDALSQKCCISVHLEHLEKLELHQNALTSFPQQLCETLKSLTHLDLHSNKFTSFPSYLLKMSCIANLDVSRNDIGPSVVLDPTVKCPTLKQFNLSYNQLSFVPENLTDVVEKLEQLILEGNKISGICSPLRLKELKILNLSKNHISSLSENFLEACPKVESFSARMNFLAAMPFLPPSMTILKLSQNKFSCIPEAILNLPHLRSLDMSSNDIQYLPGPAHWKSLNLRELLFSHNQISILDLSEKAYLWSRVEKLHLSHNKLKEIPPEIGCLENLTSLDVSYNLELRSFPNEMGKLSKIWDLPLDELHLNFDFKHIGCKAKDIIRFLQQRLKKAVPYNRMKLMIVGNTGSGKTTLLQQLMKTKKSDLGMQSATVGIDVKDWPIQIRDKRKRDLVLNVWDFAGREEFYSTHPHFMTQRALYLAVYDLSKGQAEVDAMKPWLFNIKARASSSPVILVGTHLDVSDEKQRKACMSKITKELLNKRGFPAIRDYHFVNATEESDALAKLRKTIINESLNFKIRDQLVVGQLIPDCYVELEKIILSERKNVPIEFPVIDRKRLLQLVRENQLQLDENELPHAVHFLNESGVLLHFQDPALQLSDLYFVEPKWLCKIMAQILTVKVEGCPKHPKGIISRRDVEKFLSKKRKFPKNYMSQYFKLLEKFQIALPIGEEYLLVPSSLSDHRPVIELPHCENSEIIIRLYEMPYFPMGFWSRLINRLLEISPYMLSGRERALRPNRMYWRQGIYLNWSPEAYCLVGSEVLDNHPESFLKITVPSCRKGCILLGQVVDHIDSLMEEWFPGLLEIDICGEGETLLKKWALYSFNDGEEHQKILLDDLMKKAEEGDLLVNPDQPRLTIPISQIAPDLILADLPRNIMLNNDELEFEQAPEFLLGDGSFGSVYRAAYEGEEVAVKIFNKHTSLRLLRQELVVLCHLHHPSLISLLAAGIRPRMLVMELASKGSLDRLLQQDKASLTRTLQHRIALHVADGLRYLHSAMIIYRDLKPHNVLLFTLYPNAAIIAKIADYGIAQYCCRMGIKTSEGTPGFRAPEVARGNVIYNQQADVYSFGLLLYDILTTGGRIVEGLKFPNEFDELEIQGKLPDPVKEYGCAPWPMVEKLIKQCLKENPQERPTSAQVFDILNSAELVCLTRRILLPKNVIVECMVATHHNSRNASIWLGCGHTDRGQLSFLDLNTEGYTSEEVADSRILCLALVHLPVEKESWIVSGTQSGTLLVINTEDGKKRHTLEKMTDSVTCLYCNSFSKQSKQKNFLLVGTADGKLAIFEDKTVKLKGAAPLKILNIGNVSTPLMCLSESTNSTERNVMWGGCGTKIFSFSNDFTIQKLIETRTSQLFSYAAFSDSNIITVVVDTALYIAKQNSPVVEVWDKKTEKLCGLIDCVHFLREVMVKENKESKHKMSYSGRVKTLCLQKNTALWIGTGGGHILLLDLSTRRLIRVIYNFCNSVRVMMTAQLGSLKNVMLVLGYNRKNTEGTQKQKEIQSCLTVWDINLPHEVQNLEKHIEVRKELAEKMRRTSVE

Cn1cncc1[C@](O)(COc1ccc(C#N)cc1-c1ccc(OC(F)(F)F)cc1)c1ccc(C#N)cc1 [ABT-100]
active: inhibition (Histamine H1 receptor) 88.8% | residual activity [20] 38%
inactive: residual activity [1] 59% | residual activity [2] 84% | residual activity [3] 93% | residual activity [4] 100% | residual activity [5] 100% | residual activity [6] 95% | residual activity [7] 82% | residual activity [8] 76% | residual activity [9] 56% | residual activity [10] 100% | residual activity [11] 98% | inhibition [12] -1.32% | residual activity [13] 100% | residual activity [14] 90% | residual activity [15] 75% | residual activity [16] 62% | residual activity [17] 95% | residual activity [18] 92% | residual activity [19] 60% | residual activity [21] 94% | residual activity [22] 100% | residual activity [23] 100% | residual activity [24] 90% | residual activity [25] 93% | residual activity [26] 100% | residual activity [27] 78% | residual activity [28] 85% | residual activity [29] 89% | residual activity [30] 94% | residual activity [31] 94% | residual activity [32] 62% | residual activity [33] 91% | residual activity [34] 100% | residual activity [35] 81% | residual activity [36] 52% | residual activity [37] 87% | inhibition [38] 6.74% | residual activity [39] 100%

Cn1cncc1[C@@](O)(COc1ccc(C#N)cc1-c1ccc(OC(F)(F)F)cc1)c1ccc(C#N)cc1 [A-108]
active: residual activity [2] 6.1%
inactive: residual activity [1] 100% | inhibition (Histamine H1 receptor) 43.5% | residual activity [3] 96% | residual activity [4] 100% | residual activity [5] 100% | residual activity [6] 90% | residual activity [7] 89% | residual activity [8] 81% | residual activity [9] 100% | residual activity [10] 100% | residual activity [11] 98% | inhibition [12] 6.23% | residual activity [13] 100% | residual activity [14] 100% | residual activity [15] 64% | residual activity [16] 89% | residual activity [17] 100% | residual activity [18] 82% | residual activity [19] 97% | residual activity [20] 93% | residual activity [21] 80% | residual activity [22] 98% | residual activity [23] 96% | residual activity [24] 100% | residual activity [25] 100% | residual activity [26] 100% | residual activity [27] 64% | residual activity [28] 100% | residual activity [29] 100% | residual activity [30] 86% | residual activity [31] 72% | residual activity [32] 100% | residual activity [33] 100% | residual activity [34] 94% | residual activity [35] 78% | residual activity [36] 89% | residual activity [37] 94% | inhibition [38] 14.2% | residual activity [39] 86%
